Entries after “also recorded” stand apart in the source; their conditions may differ.
Key:
Assay type in all cases: cell-based, human
MCF-7 cells [1] = test: Microscopic analysis of cell morphology, MCF-7 cells; conditions: 48 h treatment; for cell morphology / cell death under the microscope: 10× magnification
MDA-MB-231 cells = test: MTT cell viability assay, MDA-MB-231 cells; conditions: for cell survival: MDA-MB-231 cells, 100 µM, 48 h, MTT
MCF-7 cells [2] = test: MTT cell viability assay, MCF-7 cells

Structure (SMILES) | cell morphology / cell death under the microscope (MCF-7 cells [1]) | cell survival (MDA-MB-231 cells) [%] | breast cancer cell inhibitory activity as concluded from microscopy (MCF-7 cells [1]) | IC50 (MCF-7 cells [2]; Homo sapiens, MCF7) [µM] | cell survival (MCF-7 cells [2]; MCF-7 cells, 100 µM, 48 h, MTT) [%] | IC50 (MDA-MB-231 cells; Homo sapiens, MDA-MB-231) [µM]
CC/C(=C(\c1ccccc1)c1ccc(OCCN(C)C)cc1)c1ccccc1 [Tamoxifen, tamoxifen, reference compound] | significant changes in their morphology; also recorded: mostly dead | 63 |  |  |  | 
CCOC(=O)C1=C(COCc2cn(C3OC(COC(C)=O)C(OC(C)=O)C(OC(C)=O)C3OC(C)=O)nn2)N=C2SC=CN2C1c1cccc(Cl)c1 (centres unmarked) [Compound 15] | mostly dead |  | highest breast cancer cell inhibitory activity |  |  | 
CCOC(=O)C1=C(COCc2cn(CCN3C(=O)C(=O)c4cc(Cl)ccc43)nn2)N=C2SC=CN2C1c1cccc(Cl)c1 (centres unmarked) [Compound 14c] | significant changes in their morphology; also recorded: mostly dead |  | highest breast cancer cell inhibitory activity |  |  | 
CCOC(=O)C1=C(COCc2cn(CCN3C(=O)C(=O)c4cc(F)ccc43)nn2)N=C2SC=CN2C1c1cccc(Cl)c1 (centres unmarked) [Compound 14d] | significant changes in their morphology |  | not showing breast cancer cell growth inhibition |  |  | 
CCOC(=O)C1=C(COCc2cn(CCN3C(=O)C(=O)c4ccccc43)nn2)N=C2SC=CN2C1c1cccc(Cl)c1 (centres unmarked) [Compound 14a] | mostly dead | 58 | highest breast cancer cell inhibitory activity | 81.9 ± 2.26 | ~52 | 42.3 ± 0.83

From article PMC12699471 (RSC Advances, 2025)
